One test concerns IL-17A. The test is described as follows: Multiplex (MSD V-PLEX) cytokine release, InflammaSkin: IL-17A. The note with it: Example 1; Day 7 supernatant; 1 μM Otezla or SCFA (45 μg/mL Ca-propionate + 1 mM Ca-/Mg-butyrate) systemic, 0.05% Betamethasone topical; vs untreated InflammaSkin. It is filed as cell-based, human. The procedure: (§1) A total of 16 biopsies of 15 mm diameter were produced from a single donor. Two NativeSkin® models with 12/15 mm silicon rings were produced from the biopsies according to standard procedures in place, and cultured under cell culture conditions (37° C., 5% CO2, max. humidity) for 7 days with 2 mL of standard NativeSkin® medium renewed every day. Fourteen PSO-InflammaSkin® models with 12/15 mm silicon rings were produced by inducing in situ activation and Th17/Th1 polarization of skin resident T cells with a proprietary cocktail, and cultured under cell culture conditions (37° C., 5% CO2, max. humidity) for 7 days with 2 mL of PSO-InflammaSkin® culture medium renewed every day.
(§2) From Day 1 to Day 6, models were systemically treated with 1 μM Otezla or Short Chain Fatty Acids (SCFAs), or topically treated with positive control 0.05% Betamethasone
(§3) In these experiments, the SCFAs administered were 45 μg/mL of Ca-propionate and 1 mM mixture of salts (Ca-butyrate and Mg-butyrate).
At Day 7, supernatants were collected and stored at −80° C. and skin models of all conditions were carefully unmolded. […]
Human pro-inflammatory cytokines released in the supernatant were quantified using the V-PLEX Human IL-17A Kit (MesoScale Discovery, reference: K151RFD-1) and V-PLEX Human TNFα Kit (MesoScale Discovery, reference: K151QWD-1). […]
(§4) Human pro-inflammatory cytokines released in the supernatant were quantified using the V-PLEX Human IL-17A Kit (MesoScale Discovery, reference: K151RFD-1) and V-PLEX Human custom Pro-inflammatory. […]
(§5) Samples were diluted four times for plate 2 and two times for plate 1. Samples and standards were assessed in duplicate. Plates were read on MesoScale Discovery Quickpleax SQ 120 plate reader and values expressed in pg/mL.
(§6) A statistical analysis was performed. […] First, the distribution's normality of the two compared group was assessed. […] If the two distributions were normal, the homogeneity of variances was assessed using a Fisher test on the variances. […]

Another test deals with IL-27. Put plainly: Multiplex (MSD V-PLEX) cytokine release, InflammaSkin: IL-27. It is filed as cell-based, human. The note with it: Example 2; 0.05% Betamethasone topical; vs untreated InflammaSkin. The procedure: A total of 16 biopsies of 15 mm diameter were produced from a single donor. Two NativeSkin® models with 12/15 mm silicon rings were produced from the biopsies according to standard procedures in place, and cultured under cell culture conditions (37° C., 5% CO2, max. humidity) for 7 days with 2 mL of standard NativeSkin® medium renewed every day. Fourteen PSO-InflammaSkin® models with 12/15 mm silicon rings were produced by inducing in situ activation and Th17/Th1 polarization of skin resident T cells with a proprietary cocktail, and cultured under cell culture conditions (37° C., 5% CO2, max. humidity) for 7 days with 2 mL of PSO-InflammaSkin® culture medium renewed every day. […]
as §4, §5, §6

In a further test the test system is TNF-α. Put plainly: Multiplex (MSD V-PLEX) cytokine release, InflammaSkin: TNF-α. The note with it: Example 1; Day 7 supernatant; SCFA (45 μg/mL Ca-propionate + 1 mM Ca-/Mg-butyrate) systemic, 0.05% Betamethasone topical; vs untreated InflammaSkin. It is filed as cell-based, human. The procedure: as §1, §2, §3
At Day 7, supernatants were collected and stored at −80° C. and skin models of all conditions were carefully unmolded. Skin biopsies were re-punched to eliminate the area under the silicon ring, fixed in 10% buffered formalin and processed for paraffin wax embedding.
Human pro-inflammatory cytokines released in the supernatant were quantified using the V-PLEX Human IL-17A Kit (MesoScale Discovery, reference: K151RFD-1) and V-PLEX Human TNFα Kit (MesoScale Discovery, reference: K151QWD-1). Values are expressed in pg/mL. For each condition, single values, mean and SEM were plotted using GraphPad Prism. Statistical analysis was performed using a One Way ANOVA test.
PSO-InflammaSkin® models were cultured and treated as described in Example 1. In these experiments, the SCFAs administered were 45 μg/mL of Ca-propionate and 1 mM mixture of salts (Ca-butyrate and Mg-butyrate).
Human pro-inflammatory cytokines released in the supernatant were quantified using the V-PLEX Human IL-17A Kit (MesoScale Discovery, reference: K151RFD-1) and V-PLEX Human custom Pro-inflammatory. Plate 1 comprised Proinflammatory Panel 1 (human) kit reference K15049 (panel IFN-γ and TNF-α). Plate 2 comprised TH17 Panel 1 (human) kit reference K15049 (panel IL-17A Gen B, IL-21, IL-22, IL-23, IL-27, IL-31, MIP-3α).
as §5
A statistical analysis was performed. Each condition was compared to the untreated InflammaSkin® condition. First, the distribution's normality of the two compared group was assessed. […] If the two distributions were normal, the homogeneity of variances was assessed using a Fisher test on the variances. […]

For test [1], the system named is imiquimod (IMQ)-induced psoriasis model mice. Put plainly: Transepidermal water loss (TEWL) on back skin, IMQ-induced psoriasis model in mice. The note with it: Example 4, day 5, Apremilast 25 mg/kg BID p.o., SCFA fixed dose BID p.o., Etanercept 10 mg/kg Q3D s.c. It is filed as in vivo, mouse. On the procedure:
Topical application of IMQ, a TLR7/8 ligand and potent immune activator induced and exacerbated psoriasis in mice. The mouse IMQ-induced psoriasis (IMQ Ps) model was initiated by a repeated topical application of Aldara© cream (containing 5% IMQ) over 6 consecutive days. Female Balb/c mice (9 weeks of age at reception, ordered with 20 g, Charles River, Sulzfeld, Germany; n=10 mice/group, exception healthy controls n=4) received daily a topical application of 62.5 mg of commercially available IMQ cream (5% Aldara©) on the beforehand (day −1) shaved (~2 cm×3 cm), depilated (Pilka© cream) back skin, and 7 mg on the outer right ear skin for 6 consecutive days, translating in a daily dose of approximately 3.5 mg IMQ. Healthy control mice were included in the study and were treated with vehicle cream (Vaseline; Bombastus-Werke AG) only instead of IMQ. Additionally, an IMQ disease control group was also included.
Physiological parameter transepidermal water loss (TEWL; in g/m^2/h) was tested and evaluated on back skin at day 5 by a Tewameter (TM300, Courage and Khazaka, Cologne, Germany) during the IMQ psoriasis experiment. TEWL is a common examined parameters for the assessment of a disturbed skin function present in psoriatic skin. TEWL may be used a diagnostic marker in the clinics to accurately assess the disease severity in psoriasis.

As for `C[C@H]1C[C@H]2[C@@H]3CCC4=CC(=O)C=C[C@]4(C)[C@@]3(F)[C@@H](O)C[C@]2(C)[C@@]1(O)C(=O)CO` [Betamethasone], the “IL-17A levels decreased by” value in the test on IL-17A is listed as “about 70%”. Moreover, in the test with IL-27, the “increase of IL-27 cytokine secretion” value is “about 30%”. Besides, the “TNF-α levels decreased by” value in the test on TNF-α is ~ 40%.
For the compound Etanercept, in test [1], the “transepidermal water loss (TEWL)” value was “did not show significant effects”.

For the origin of these results see US20260216109A1, “TREATMENT OF SKIN DISORDERS WITH SHORT CHAIN FATTY ACIDS” (Temple University-Of The Commonwealth System of Higher …, priority 2023, published 2026).
